How the values were obtained:
[1] = Clearance in human liver microsomes at 1 uM followed by NADPH addition measured up to 60 mins by LC-MS/MS analysis relative to hepatic blood flow; type: ADME, Microsome; settings: read-out: CLH
[2] = Clearance in human hepatocytes at 1 uM measured up to 6 hrs by LC-MS/MS analysis relative to hepatic blood flow; type: ADME, cell-based, Hepatocyte; settings: read-out: CLH

| hepatic extraction ratio at 1 h, 1 µM [1] | hepatic extraction ratio at 6 h, 1 µM [2] | SMILES |
| --- | --- | --- |
| < 0.23 | 0.18 | Cc1c(C(=O)NCC(C)(C)O)sc2ncn(Cc3nc(C[C@H](O)c4ccc(Cl)cc4)no3)c(=O)c12 |
| < 0.23 | 0.31 | O=C1NCCc2c1sc1ncn(Cc3nc(C[C@H](O)c4ccc(Cl)cc4)no3)c(=O)c21 |
| < 0.23 | 0.36 | Cc1c(C(N)=O)sc2ncn(Cc3nc(C[C@H](O)c4cc5ccccc5o4)no3)c(=O)c12 |
| < 0.23 | 0.39 | NC(=O)c1sc2ncn(Cc3nc(C[C@H](O)c4ccc(Cl)cc4)no3)c(=O)c2c1Cl |
| < 0.23 | 0.23 | Cc1c(C(N)=O)sc2ncn(Cc3nc(C[C@H](O)c4cc(F)cc(F)c4)no3)c(=O)c12 |
| 0.29 | 0.24 | CNC(=O)c1sc2ncn(Cc3nc(C[C@H](O)c4ccc5c(c4)OCO5)no3)c(=O)c2c1C |
| 0.24 | 0.36 | Cc1c(C(=O)NCC(F)F)sc2ncn(Cc3nc(C[C@H](O)c4ccc(Cl)cc4)no3)c(=O)c12 |
| < 0.23 | 0.29 | CNC(=O)c1sc2ncn(Cc3nc(C[C@H](O)c4ccc(Cl)cc4)no3)c(=O)c2c1C |
| < 0.23 | 0.24 | Cc1c(C(N)=O)sc2ncn(Cc3nc(C[C@H](O)c4ccc5c(c4)OCO5)no3)c(=O)c12 |
| 0.29 | 0.25 | Cc1c(C(N)=O)sc2ncn(Cc3nc(C[C@H](O)c4ccc(Cl)cc4)no3)c(=O)c12 |

— ChEMBL document CHEMBL4834489 (ACS Med Chem Lett, 2021)
